# Measurements published in patent publication US20250243196A1, “CITRON KINASE INHIBITORS” (The Cleveland Clinic Foundation, priority 2021, published 2025).
# Tests used:
# Type in all cases: biochemical
# [1] = biological target: MST4(h) (Homo sapiens (Human), UniProt Q9P289); experiment: KinaseProfiler panel; parameters: dose or concentration left out as unconfirmed; conditions: activity remaining
# [2] = biological target: PAK1(h) (Homo sapiens (Human), UniProt Q13153); experiment: KinaseProfiler panel; parameters: dose or concentration left out as unconfirmed; conditions: activity remaining
# [3] = biological target: PI3KC2a(h) (Homo sapiens (Human), UniProt O00443); experiment: KinaseProfiler panel; parameters: dose or concentration left out as unconfirmed; conditions: activity remaining
# [4] = biological target: GSK3α(h) (Homo sapiens (Human), UniProt P49840); experiment: KinaseProfiler panel; parameters: dose or concentration left out as unconfirmed; conditions: activity remaining
# Chain of GSK3α(h) (P49840 whole entry): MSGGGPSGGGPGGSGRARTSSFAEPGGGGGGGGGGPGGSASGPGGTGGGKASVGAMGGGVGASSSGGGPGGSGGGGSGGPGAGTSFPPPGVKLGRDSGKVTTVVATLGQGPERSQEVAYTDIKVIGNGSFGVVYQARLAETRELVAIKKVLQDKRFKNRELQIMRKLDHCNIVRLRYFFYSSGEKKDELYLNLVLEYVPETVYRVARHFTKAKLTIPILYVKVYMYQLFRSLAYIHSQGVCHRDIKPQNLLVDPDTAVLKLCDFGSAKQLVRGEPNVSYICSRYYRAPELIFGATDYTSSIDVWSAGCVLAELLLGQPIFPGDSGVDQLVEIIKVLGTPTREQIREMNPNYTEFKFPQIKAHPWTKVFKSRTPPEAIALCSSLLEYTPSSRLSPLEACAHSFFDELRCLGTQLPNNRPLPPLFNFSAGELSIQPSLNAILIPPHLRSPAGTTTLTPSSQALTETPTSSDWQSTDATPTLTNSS
# [5] = biological target: IKKα(h) (Homo sapiens (Human), UniProt O15111); experiment: KinaseProfiler panel; parameters: dose or concentration left out as unconfirmed; conditions: activity remaining
# [6] = biological target: MAPK1(h) (Homo sapiens (Human), UniProt P27361); experiment: KinaseProfiler panel; parameters: dose or concentration left out as unconfirmed; conditions: activity remaining
# Chain of MAPK1(h) (P27361 whole entry): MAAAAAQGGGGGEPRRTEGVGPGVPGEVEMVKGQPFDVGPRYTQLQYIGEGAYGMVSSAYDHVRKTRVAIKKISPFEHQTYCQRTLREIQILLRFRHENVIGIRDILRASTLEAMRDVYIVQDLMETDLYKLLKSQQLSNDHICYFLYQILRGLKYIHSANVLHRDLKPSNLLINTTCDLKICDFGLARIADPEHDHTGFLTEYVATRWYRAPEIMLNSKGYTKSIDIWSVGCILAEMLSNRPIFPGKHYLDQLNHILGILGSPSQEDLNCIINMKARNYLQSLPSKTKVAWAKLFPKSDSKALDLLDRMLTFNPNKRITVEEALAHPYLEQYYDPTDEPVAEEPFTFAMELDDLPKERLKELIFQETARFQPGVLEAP
# [7] = biological target: BRK(h) (Homo sapiens (Human), UniProt Q13882); experiment: KinaseProfiler panel; parameters: dose or concentration left out as unconfirmed; conditions: activity remaining
# Chain of BRK(h) (Q13882 whole entry): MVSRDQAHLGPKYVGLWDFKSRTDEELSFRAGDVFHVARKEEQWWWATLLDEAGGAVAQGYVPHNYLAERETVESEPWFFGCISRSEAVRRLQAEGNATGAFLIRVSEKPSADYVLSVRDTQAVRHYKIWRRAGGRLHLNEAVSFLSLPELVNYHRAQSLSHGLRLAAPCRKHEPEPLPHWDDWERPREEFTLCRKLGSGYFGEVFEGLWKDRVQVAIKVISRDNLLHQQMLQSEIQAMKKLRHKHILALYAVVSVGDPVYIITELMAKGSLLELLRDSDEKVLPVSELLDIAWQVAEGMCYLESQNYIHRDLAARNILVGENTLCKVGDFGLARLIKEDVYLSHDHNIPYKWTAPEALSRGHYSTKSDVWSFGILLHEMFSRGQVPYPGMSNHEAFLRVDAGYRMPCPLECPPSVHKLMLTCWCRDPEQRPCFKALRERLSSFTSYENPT
# [8] = biological target: ULK1(h) (Homo sapiens (Human), UniProt O75385); experiment: KinaseProfiler panel; parameters: dose or concentration left out as unconfirmed; conditions: activity remaining
# [9] = biological target: Rsk1(h) (Homo sapiens (Human), UniProt Q15418); experiment: KinaseProfiler panel; parameters: dose or concentration left out as unconfirmed; conditions: activity remaining
# [10] = biological target: OSR1(h) (Homo sapiens (Human), UniProt O95747); experiment: KinaseProfiler panel; parameters: dose or concentration left out as unconfirmed; conditions: activity remaining
# Chain of OSR1(h) (O95747 whole entry): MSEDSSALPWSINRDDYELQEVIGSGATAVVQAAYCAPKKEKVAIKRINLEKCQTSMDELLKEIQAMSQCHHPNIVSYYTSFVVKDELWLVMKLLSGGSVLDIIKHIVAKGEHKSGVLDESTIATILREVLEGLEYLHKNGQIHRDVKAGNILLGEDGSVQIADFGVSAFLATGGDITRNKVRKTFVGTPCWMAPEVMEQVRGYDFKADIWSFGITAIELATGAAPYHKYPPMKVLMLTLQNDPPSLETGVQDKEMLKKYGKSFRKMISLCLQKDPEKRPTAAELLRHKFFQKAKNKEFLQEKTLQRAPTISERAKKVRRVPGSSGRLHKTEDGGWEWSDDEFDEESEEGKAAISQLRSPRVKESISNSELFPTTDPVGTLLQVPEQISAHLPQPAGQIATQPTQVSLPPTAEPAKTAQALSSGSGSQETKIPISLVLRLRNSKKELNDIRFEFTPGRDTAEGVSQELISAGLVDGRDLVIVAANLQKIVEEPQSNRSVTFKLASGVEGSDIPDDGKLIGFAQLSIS
# [11] = biological target: CDK9/cyclin T1(h) (Homo sapiens (Human), UniProt P50750); experiment: KinaseProfiler panel; parameters: dose or concentration left out as unconfirmed; conditions: activity remaining
# [12] = biological target: ICK(h) (Homo sapiens (Human), UniProt Q9UPZ9); experiment: KinaseProfiler panel; conditions: activity remaining
# [13] = biological target: cSRC(h) (Homo sapiens (Human), UniProt P12931); experiment: KinaseProfiler panel; parameters: dose or concentration left out as unconfirmed; conditions: activity remaining
# [14] = biological target: NUAK2(h) (Homo sapiens (Human), UniProt Q9H093); experiment: KinaseProfiler panel; parameters: dose or concentration left out as unconfirmed; conditions: activity remaining
# Chain of NUAK2(h) (Q9H093 whole entry): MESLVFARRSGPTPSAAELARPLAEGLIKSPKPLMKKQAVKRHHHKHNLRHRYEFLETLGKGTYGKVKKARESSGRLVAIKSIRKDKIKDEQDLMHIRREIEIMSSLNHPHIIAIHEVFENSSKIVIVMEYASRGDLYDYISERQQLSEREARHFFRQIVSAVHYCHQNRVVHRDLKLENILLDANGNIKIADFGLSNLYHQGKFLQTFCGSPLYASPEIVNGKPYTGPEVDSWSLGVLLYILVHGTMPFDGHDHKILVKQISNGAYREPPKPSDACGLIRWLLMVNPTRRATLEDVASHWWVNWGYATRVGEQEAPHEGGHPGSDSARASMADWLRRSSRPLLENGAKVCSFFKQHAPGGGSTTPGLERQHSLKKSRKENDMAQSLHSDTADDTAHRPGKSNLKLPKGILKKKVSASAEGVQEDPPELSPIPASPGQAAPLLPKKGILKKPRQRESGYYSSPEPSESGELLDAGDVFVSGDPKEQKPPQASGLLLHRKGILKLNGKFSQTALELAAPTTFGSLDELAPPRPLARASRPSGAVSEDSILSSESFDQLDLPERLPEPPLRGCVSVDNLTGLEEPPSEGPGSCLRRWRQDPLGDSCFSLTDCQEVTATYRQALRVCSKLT
# [15] = biological target: PKG1β(h) (Homo sapiens (Human), UniProt Q13976); experiment: KinaseProfiler panel; parameters: dose or concentration left out as unconfirmed; conditions: activity remaining
# [16] = biological target: MST2(h) (Homo sapiens (Human), UniProt Q13188); experiment: KinaseProfiler panel; parameters: dose or concentration left out as unconfirmed; conditions: activity remaining
# Chain of MST2(h) (Q13188 whole entry): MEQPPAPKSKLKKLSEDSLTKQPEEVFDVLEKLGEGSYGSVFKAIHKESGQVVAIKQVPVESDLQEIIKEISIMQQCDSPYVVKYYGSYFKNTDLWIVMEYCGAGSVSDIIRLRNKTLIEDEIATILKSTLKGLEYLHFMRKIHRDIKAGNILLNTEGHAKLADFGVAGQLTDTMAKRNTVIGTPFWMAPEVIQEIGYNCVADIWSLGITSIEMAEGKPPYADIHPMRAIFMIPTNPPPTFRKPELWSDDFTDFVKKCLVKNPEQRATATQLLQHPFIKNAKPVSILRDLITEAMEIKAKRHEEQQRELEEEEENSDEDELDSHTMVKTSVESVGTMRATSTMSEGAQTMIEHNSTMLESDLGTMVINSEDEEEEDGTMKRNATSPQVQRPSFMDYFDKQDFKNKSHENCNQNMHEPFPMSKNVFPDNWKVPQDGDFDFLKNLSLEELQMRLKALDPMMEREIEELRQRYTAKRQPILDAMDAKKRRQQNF
# [17] = biological target: PKAcβ(h) (Homo sapiens (Human), UniProt P22694); experiment: KinaseProfiler panel; parameters: dose or concentration left out as unconfirmed; conditions: activity remaining
# [18] = biological target: MARK3(h) (Homo sapiens (Human), UniProt P27448); experiment: KinaseProfiler panel; parameters: dose or concentration left out as unconfirmed; conditions: activity remaining
# Chain of MARK3(h) (P27448 whole entry): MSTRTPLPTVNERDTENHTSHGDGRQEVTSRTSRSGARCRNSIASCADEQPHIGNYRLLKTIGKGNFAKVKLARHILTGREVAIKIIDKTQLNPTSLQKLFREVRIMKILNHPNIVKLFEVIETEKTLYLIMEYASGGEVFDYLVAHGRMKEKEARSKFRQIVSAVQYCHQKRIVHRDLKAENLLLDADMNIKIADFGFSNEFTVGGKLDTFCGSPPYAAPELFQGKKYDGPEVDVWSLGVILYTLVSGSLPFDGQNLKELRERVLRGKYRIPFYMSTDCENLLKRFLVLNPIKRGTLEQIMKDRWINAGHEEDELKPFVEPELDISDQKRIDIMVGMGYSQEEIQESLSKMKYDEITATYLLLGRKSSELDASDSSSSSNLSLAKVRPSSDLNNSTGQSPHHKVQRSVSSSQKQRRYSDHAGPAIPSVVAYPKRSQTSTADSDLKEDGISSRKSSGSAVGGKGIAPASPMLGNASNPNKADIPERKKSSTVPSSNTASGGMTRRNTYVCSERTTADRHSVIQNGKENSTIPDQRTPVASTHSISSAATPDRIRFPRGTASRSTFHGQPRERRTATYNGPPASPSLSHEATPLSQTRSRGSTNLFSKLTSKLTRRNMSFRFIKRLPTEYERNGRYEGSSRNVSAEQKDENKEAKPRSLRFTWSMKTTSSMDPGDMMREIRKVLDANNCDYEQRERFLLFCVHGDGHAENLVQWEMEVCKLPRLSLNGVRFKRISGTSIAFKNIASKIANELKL
# [19] = biological target: IRE1(h) (Homo sapiens (Human), UniProt O75460); experiment: KinaseProfiler panel; parameters: dose or concentration left out as unconfirmed; conditions: activity remaining
# Chain of IRE1(h) (O75460 19-977): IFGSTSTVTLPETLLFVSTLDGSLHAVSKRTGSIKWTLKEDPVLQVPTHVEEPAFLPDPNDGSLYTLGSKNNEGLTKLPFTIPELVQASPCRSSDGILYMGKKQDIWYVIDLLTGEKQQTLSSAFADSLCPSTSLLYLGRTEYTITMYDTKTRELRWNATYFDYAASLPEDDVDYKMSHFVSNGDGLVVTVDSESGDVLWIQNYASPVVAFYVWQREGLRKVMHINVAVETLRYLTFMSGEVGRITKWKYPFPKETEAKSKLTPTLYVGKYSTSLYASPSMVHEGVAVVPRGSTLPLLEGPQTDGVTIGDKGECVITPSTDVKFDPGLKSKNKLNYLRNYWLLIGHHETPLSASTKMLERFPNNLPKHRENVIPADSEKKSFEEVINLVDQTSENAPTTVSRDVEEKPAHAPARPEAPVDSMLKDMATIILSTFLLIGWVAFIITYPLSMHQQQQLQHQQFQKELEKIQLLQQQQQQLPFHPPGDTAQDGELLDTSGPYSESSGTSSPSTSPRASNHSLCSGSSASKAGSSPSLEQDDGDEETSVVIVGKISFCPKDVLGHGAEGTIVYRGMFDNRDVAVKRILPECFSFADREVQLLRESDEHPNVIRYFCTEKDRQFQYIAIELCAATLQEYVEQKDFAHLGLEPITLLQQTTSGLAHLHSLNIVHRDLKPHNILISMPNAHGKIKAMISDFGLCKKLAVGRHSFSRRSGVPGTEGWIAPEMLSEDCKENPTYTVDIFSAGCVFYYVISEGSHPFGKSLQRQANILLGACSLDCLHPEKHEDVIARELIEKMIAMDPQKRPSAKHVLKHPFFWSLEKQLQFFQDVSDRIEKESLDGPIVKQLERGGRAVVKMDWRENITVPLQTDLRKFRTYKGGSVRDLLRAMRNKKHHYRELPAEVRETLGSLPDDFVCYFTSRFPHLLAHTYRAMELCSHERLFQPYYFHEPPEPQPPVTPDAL
# [20] = biological target: Hck(h) activated (Homo sapiens (Human), UniProt P08631); experiment: KinaseProfiler panel; parameters: dose or concentration left out as unconfirmed; conditions: activity remaining
# [21] = biological target: PKAα (Homo sapiens (Human), UniProt P17612); experiment: KinaseProfiler radiometric assay (14-440KP); conditions: mean of at least two independent experiments
# Excerpt: In another aspect, disclosed is a method of inhibiting citron kinase in a sample, comprising contacting the sample with a compound described herein (e.g., a compound of formula (I) or a pharmaceutically acceptable salt thereof), or a pharmaceutical composition described herein (e.g., a pharmaceutical composition comprising a compound of formula (I) or a pharmaceutically acceptable salt thereof), in an amount effective to inhibit citron kinase. In some embodiments, the step of contacting the sample with the compound comprises administering the compound to a subject (e.g., a subject) suffering from cancer. Methods of determining kinase inhibition are well known in the art. For example, kinase activity of an enzyme and the inhibitory capacity of a test compound can be determined by measuring enzyme specific phosphorylation of a substrate. Commercial assays and kits can be employed. For example, kinase inhibition can be determined using a radiometric binding assay, such as using KinaseProfiler™ technology (Eurofins Discovery). This assay method directly detects product formation without the use of modified substrates or coupling enzymes. Test compounds are incubated with kinase, substrate, required cofactors and radioisotope labeled ATP. Following incubation, unreacted radioactive ATP is removed by washing and incorporation of the radiolabeled phosphate into the kinase substrate is assayed to detect phosphoryltransferase activity, which is directly proportional to the amount of phosphorylated substrate. Inhibition of the kinase by a kinase inhibitor prevents phosphorylation of the substrate and thereby limits the incorporation of radiolabeled phosphate. Such an assay is compatible with a microwell assay format, allowing simultaneous determination of IC50 of multiple compounds.
# The effect of various compounds on the inhibition of other kinases has also been determined. Table 2 reports measured IC50 values; value units are nanomolar inhibition.
# [22] = biological target: NEK11(h) (Homo sapiens (Human), UniProt Q8NG66); experiment: KinaseProfiler panel; parameters: dose or concentration left out as unconfirmed; conditions: activity remaining
# [23] = biological target: ALK1(h) (Homo sapiens (Human), UniProt P37023); experiment: KinaseProfiler panel; parameters: dose or concentration left out as unconfirmed; conditions: activity remaining
# [24] = biological target: FGFR1(h) (Homo sapiens (Human), UniProt P11362); experiment: KinaseProfiler panel; parameters: dose or concentration left out as unconfirmed; conditions: activity remaining
# [25] = biological target: Aurora-C(h) (Homo sapiens (Human), UniProt Q9UQB9); experiment: KinaseProfiler panel; conditions: activity remaining
# Chain of Aurora-C(h) (Q9UQB9 whole entry): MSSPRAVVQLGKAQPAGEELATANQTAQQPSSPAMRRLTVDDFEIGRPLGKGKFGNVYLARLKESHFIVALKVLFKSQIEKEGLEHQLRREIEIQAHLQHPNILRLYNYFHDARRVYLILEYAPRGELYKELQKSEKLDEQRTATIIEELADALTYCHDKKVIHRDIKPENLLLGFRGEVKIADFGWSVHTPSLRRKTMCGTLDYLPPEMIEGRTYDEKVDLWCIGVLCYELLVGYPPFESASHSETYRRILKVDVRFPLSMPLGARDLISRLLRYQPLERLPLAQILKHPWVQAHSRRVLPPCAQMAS
# [26] = biological target: Rse(h) (Homo sapiens (Human), UniProt Q06418); experiment: KinaseProfiler panel; parameters: dose or concentration left out as unconfirmed; conditions: activity remaining
compound,measurement,setting,value
"Cc1cc2c(-c3ccc(NC(=O)[C@H](N)CC(C)(C)C)cc3C)ccnc2[nH]1 [Compound F-90, (2R)-2-Amino-4,4-dimethyl-N-[3-methyl-4-(2-methyl-1H-pyrrolo[2,3-b]pyridin-4-yl)phenyl]pentanamide]",% Activity,[1],106%
same,% Activity,[2],95%
same,% Activity,[3],102%
same,% Activity,[4],87%
same,% Activity,[5],98%
same,% Activity,[6],95%
same,% Activity,[7],83%
same,% Activity,[8],95%
same,% Activity,[9],99%
same,% Activity,[10],80%
same,% Activity,[11],81%
same,% Activity,[12],99%
same,% Activity,[13],93%
same,% Activity,[14],72%
same,% Activity,[15],92%
same,% Activity,[16],106%
same,% Activity,[17],12%
same,% Activity,[18],90%
same,% Activity,[19],99%
same,% Activity,[20],111%
same,IC50,[21],> 3 µM
same,% Activity,[22],97%
same,% Activity,[23],94%
same,% Activity,[24],100%
same,% Activity,[25],94%
same,% Activity,[26],129%
